Reference: patent US20110243993A1, “Method for diagnosing and creating immunogenic tolerance in contact allergy and other epithelial immunotoxicological ailments” (priority 2010, published 2011)
Entries after “also recorded” stand apart in the source; their conditions may differ.

Legend:
[1] = test system: human keratinocytes; conditions: for blebbing response of keratinocytes: compound added to human keratinocytes, vehicle DMSO
From the text: (§1) The third step is that this residue (C54) is situated in a stretch of K5 that has been shown through its interactions with desmoplakin, to be vital in maintaining the integrity of the desmosome. It is known that epithelial cells with a compromised cell-cell (and/or cell-matrix) contact undergo apoptosis (“anoikis”). […] Basal keratinocytes consists of up to 35% of insoluble keratin intermediate filaments (KIFs). As basal keratinocytes occasionally undergo apoptosis, a mechanism of waste removal of the debris of insoluble keratins has evolved. […] The keratin bodies bleb off the cells.

[2] = mouse, in vivo; cited from earlier work
[3] = test system: K5 and K14; test: Western blot of blebs using K5 and K14 antibodies; type: cell-based, human; conditions: blebs from hapten-exposed keratinocytes
From the text: Elevated levels of ANA are common features in various autoimmune diseases such as Sjögrens syndrome (SS), rheumatoid arthritis (RA) and systemic lupus erythematosus (SLE).
as §1

[4] = test system: anti-nuclear antibodies (ANA); test: Levels of anti-nuclear antibodies (ANA) after contact with sensitizing compounds; conditions: contact with sensitizing compound
[5] = test system: serum amyloid P component (SAP); test: ELISA detection of serum amyloid protein (SAP) in sera of hapten-exposed mice; conditions: mice exposed on skin, booster dose on day 10
Description: Extreme sensitizers: Oxazolone (4-Ethoxymethylene-2-phenyl-2-oxazolin-5-one, 1.4 mM) CDNB (1-Chloro-2,4-dinitrobenzene, 7.4 mM)); Strong sensitizers: dBBr (48.6 mM), Glyoxal (ethane-1,2-dione, 1.27 M). DMSO was used as control. All chemicals are purchased from Sigma-Aldrich (Stockholm, Sweden).
Apply 25 μl of the solution to the back of both ears (25 μl on each ear), once daily, on day 1, 2 and 3. Apply a booster dose on day 10 (if necessary). Sacrifice the mice on day 6 (or day 13 if a booster dose is used) by anesthetization with isoflurane (Kent Scientific Corporation, Torrington, Conn., USA) followed by inhalation of carbon dioxide (AGA, Lidingö, Sverige). To collect blood: Use a 1 ml syringe (B. Braun Medical Inc., Bethlehem, Pa., USA) with a 0.4 mm×12 mm injection needle (B. Braun Medical Inc., Bethlehem, Pa., USA). Place the tip of the needle just below the breastbone so that the syringe is linear to the abdomen. Insert the needle just below the breastbone and press it towards the heart. When inside the heart, withdraw blood. It is important to loosen the piston a little from the bottom of the syringe before inserting into the mouse. Carefully rotate the syringe during withdrawal to avoid clotting. […]
The SAP Mouse, ELISA kit 96 tests, quantitative (Alpha Diagnostics International Inc., San Antonio, Tex., USA) is used. […]

[6] = Induction of oral tolerance in humans allergic to cinnamic aldehyde; type: in vivo, human; conditions: once a day for 5-100 days, vs placebo (tap water)
From the text: Peptides (including, but not limited to): 1: [Ace]-[…]-[Amide]; 2: [Ace]-[…]-[Amide], 3: [Ace]-[…]-[Amide]. The peptides 1 and 2 represent sequences from keratin 5 and peptide 3 is derived from keratin 14; however, it is the intention that the invention also includes peptides and/or proteins from other proteins, e.g. such as those found in the blebs from keratinocytes that have been exposed to haptens.
Preparation of amino acid containing epitope targets as described in example 3.
Of 20 individuals with a confirmed allergy to the hapten cinnamic aldehyde, 10 are given a test solution of 0.5 mg to 10 g amino acid containing epitope target 1 once a day for 5-100 days. The other 10 individuals are given a placebo (i.e. tap water) to drink according to the same administration scheme and time table as described above. The antibody and T cell epitope mapping profiles for each individual are then evaluated according to procedures in example 4 and 5. Each individual is also patch-tested with cinnamic aldehyde.

[7] = naïve mice; cited from earlier work
[8] = target: T1, cysteine 54 (C54) of K5 (Homo sapiens, UniProt P13647); test: Identification of haptenation site with LTQ-FT-ICR mass spectrometer
T1 construct: endogenous in cells; host or cells: living (primary) human keratinocytes and intact full-thickness human skin
T1 sequence (P13647 1-590): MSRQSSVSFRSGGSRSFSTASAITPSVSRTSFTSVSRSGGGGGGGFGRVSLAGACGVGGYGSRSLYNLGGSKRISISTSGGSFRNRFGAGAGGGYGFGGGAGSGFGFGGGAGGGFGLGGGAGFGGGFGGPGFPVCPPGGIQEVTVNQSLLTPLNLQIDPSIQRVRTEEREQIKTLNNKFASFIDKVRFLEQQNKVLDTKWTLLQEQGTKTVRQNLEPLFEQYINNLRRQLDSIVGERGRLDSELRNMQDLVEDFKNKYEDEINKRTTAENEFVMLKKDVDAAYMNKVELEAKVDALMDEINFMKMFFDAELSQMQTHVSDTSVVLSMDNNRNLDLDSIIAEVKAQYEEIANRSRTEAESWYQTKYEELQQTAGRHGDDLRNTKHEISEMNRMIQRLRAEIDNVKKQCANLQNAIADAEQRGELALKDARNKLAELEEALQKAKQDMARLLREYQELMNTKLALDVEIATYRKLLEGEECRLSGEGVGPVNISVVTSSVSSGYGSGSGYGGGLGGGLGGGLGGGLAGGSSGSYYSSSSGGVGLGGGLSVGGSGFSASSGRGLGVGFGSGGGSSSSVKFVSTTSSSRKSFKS
T1 sequence (P02533 1-472 partner): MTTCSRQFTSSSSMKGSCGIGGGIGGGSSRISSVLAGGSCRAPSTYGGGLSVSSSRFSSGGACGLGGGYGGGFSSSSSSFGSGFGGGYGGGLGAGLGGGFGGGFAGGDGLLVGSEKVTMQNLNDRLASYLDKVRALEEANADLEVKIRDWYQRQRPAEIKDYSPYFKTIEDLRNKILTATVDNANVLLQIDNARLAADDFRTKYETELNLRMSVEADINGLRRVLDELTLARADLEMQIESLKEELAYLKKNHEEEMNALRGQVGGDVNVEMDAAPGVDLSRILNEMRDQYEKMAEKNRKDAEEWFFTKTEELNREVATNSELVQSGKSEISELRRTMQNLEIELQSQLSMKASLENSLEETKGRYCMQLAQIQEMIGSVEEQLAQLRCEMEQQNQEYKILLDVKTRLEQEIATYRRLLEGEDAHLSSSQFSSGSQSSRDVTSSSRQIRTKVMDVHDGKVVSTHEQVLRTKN
From the text: The second step is that the molecules enter the basal cells. Since the extracellular environment is oxidizing, extracellular cysteines are mostly oxidized to disulfides. However, it is in the reduced, intracellular environment that the haptens find reduced thiols to react with. Once inside the cells the compounds will react with available (i.e. not sterically hindered) reduced cysteines (thiol groups). […] Furthermore, it was identified that one of the cysteines that the haptens react with is cysteine 54 (C54) of K5. […] One of the reasons for intense reaction at C54 is presumably its high effective concentration just inside the cell membrane. It is vital in the life of an organism to fail-safe its epithelial integrity, and the bundling of the KIFs ensures a high effective local concentration of the peptide stretch containing C54, ensuring strong welding of the cell to its surroundings. Amino acids nearby in the primary sequence are consequently also located within physical reach of an incoming compound in similarly high effective concentrations. Looking at blebbing brought on by amine- and arginine-reactive compounds from this angle, the residues K71 and R72 are the closest candidates in the primary sequence.

[9] = test system: keratins; test: Cross-linking of bleb proteins by bidentate haptens; parameters: species or system human; conditions: bidentate hapten
From the text: In SDS-PAGE experiments it was shown that thiol-, amine-, and arginine-reactive sensitizers give rise to blebs that contain the same protein bands. In this step, it is thus shown that by adding haptens to keratinocytes, the haptens induce expulsion of a high amount of cryptic epitopes that are normally concealed from the immune system through their intracellular location and/or neoepitopes consisting of haptenated/differently processed peptides and proteins. It was also shown, using a LTQ-FT-ICR mass spectrometer coupled to a nanospray source, that the blebs contain other proteins, for example peptidyl-prolyl cis-trans isomerase A, stathmin, calmodulin, cofilin-1, transgelin-2, 14-3-3 protein sigma, annexin A2, tubulin, keratin 6A 6B 6C, transitional endoplasmic reticulum ATPase, endoplasmin, and importin-5. […] It was also shown that the sensitizing compounds also modify other proteins and that these proteins are released in blebs, as visualized by fluorescent bands on SDS-gels.

CCCCCCCCCCCCOS(=O)(=O)[O-].[Na+] [SDS, Sodium dodecyl sulphate]
cellular response other than blebbing ([1]; human keratinocytes exposed to compound): cells seem to “dissolve”

O=CCc1ccccc1 [Phenylacetaldehyde]
sensitizer class by EC3-value [2]: Moderate (key: Extreme: For extreme sensitizers (EC3<0.1%); Strong: For strong sensitizers (0.1%<EC3<1%); Moderate: For moderate sensitizers (1%<EC3<10%); Weak: For weak sensitizers (EC3>10%))

O=CC=O [Glyoxal, ethane-1,2-dione]
blebbing response of keratinocytes [1]: provoke a blebbing response | keratins (K5 and K14) in blebs [3]: contain K5 and K14; also recorded: also contain keratins | sensitizer class by EC3-value [2]: Strong (key: Extreme: For extreme sensitizers (EC3<0.1%); Strong: For strong sensitizers (0.1%<EC3<1%); Moderate: For moderate sensitizers (1%<EC3<10%); Weak: For weak sensitizers (EC3>10%)) | levels of anti-nuclear antibodies (ANA) [4]: increased levels | levels of SAP protein in sera [5]: increased levels

[Ace]-VSLGGACGAGGYG-[Amide] [amino acid containing epitope target 1]
antibodies and T cells against the amino acid containing epitope target [6]: less antibodies and T cells | reaction to cinnamic aldehyde in the patch test [6]: less reaction

[Ni] [nickel]
protection against the hapten after tolerance induction [7]: some protection

Cc1c(C)n2c(CBr)c(C)c(=O)n2c1=O [mBBr]
covalent modification of C54 of K5 ([8]; intact, full-thickness human skin): modifies C54 of K5 | covalent modification of C54 of K5 ([8]; living human keratinocytes): modify C54 of K5; also recorded: modifies C54 of K5

O=[N+]([O-])c1ccc(Cl)c([N+](=O)[O-])c1 [CDNB, 1-Chloro-2,4-dinitrobenzene]
blebbing response of keratinocytes [1]: provoke a blebbing response | sensitizer class by EC3-value [2]: Extreme (key: Extreme: For extreme sensitizers (EC3<0.1%); Strong: For strong sensitizers (0.1%<EC3<1%); Moderate: For moderate sensitizers (1%<EC3<10%); Weak: For weak sensitizers (EC3>10%)) | levels of anti-nuclear antibodies (ANA) [4]: increased levels | levels of SAP protein in sera [5]: increased levels

CCCCCCC(C=O)=Cc1ccccc1 [α-Hexyl-cinnamicaldehyde]
sensitizer class by EC3-value [2]: Weak (key: Extreme: For extreme sensitizers (EC3<0.1%); Strong: For strong sensitizers (0.1%<EC3<1%); Moderate: For moderate sensitizers (1%<EC3<10%); Weak: For weak sensitizers (EC3>10%))

C=O [Formaldehyde]
sensitizer class by EC3-value [2]: Strong (key: Extreme: For extreme sensitizers (EC3<0.1%); Strong: For strong sensitizers (0.1%<EC3<1%); Moderate: For moderate sensitizers (1%<EC3<10%); Weak: For weak sensitizers (EC3>10%))

O=c1[nH]sc2ccccc12 [1,2-Benzisothiazolin-3-one]
sensitizer class by EC3-value [2]: Moderate (key: Extreme: For extreme sensitizers (EC3<0.1%); Strong: For strong sensitizers (0.1%<EC3<1%); Moderate: For moderate sensitizers (1%<EC3<10%); Weak: For weak sensitizers (EC3>10%))

Cc1c(CBr)n2c(CBr)c(C)c(=O)n2c1=O [dBBr, dibromobimane]
cross links between proteins [9]: cause cross links between for example keratins | levels of anti-nuclear antibodies (ANA) [4]: increased levels

CCOC=C1N=C(c2ccccc2)OC1=O [Oxazolone, 4-Ethoxymethylene-2-phenyl-2-oxazolin-5-one]
protection against the hapten after tolerance induction [7]: some protection | blebbing response of keratinocytes [1]: provoke a blebbing response | keratins (K5 and K14) in blebs [3]: contain K5 and K14; also recorded: also contain keratins | levels of anti-nuclear antibodies (ANA) [4]: increased levels
